Results from patent US12329967B2, “State-dependent peripheral neuromodulation to treat bladder dysfunction” (Duke University, priority 2015, dated 2025).

System: bladder
Assay: in vivo cystometry (CMG) in urethane anesthetized rats, PGE2 model of bladder dysfunction
Set-up: species or system female Wistar rats
Conditions: intravesical infusion of PGE2 (100 μM), no stimulation, vs control rats (FIG. 5A)
Procedure: In the following examples, an accepted animal model of bladder dysfunction was used: the PGE2 (prostoglandin E2) model, in which installation of PGE2 into rats induces a hyperactive bladder response. In addition, a cat model of bladder dysfunction was used. […] Acute experiments were conducted in urethane (1.2 g/kg, SC) anesthetized female Wistar rats using in vivo cystometry (CMG). A PE-90 catheter was placed to measure bladder pressure and for intravesical infusion of saline and PGE2 (100 μM). Bipolar electrodes were placed on the external urethral sphincter (EUS) to measure electromyographic (EMG) activity and a bipolar nerve cuff electrode was placed on the sensory branch of the pudendal nerve for stimulation. In a subset of trials after PGE2 infusion, electrical stimulation of the sensory branch of the pudendal nerve was delivered at different amplitudes (0.5-10× EUS reflex threshold, T) and frequencies (1-50 Hz). T may be determined as follows: a low frequency electrical signal, typically 1 Hz, is applied and the intensity of stimulation is increased (either by increasing the voltage or the current of the signal, preferably the current) until the pudendal nerve stimulation pulse produces a reflex EMG response in the EUS.

## CCCCC[C@H](O)/C=C/[C@H]1[C@H](O)CC(=O)[C@@H]1C/C=C\CCCC(=O)O [PGE2, prostoglandin E2]
  changes in bladder capacity: reduces bladder capacity
